Source: the NIST ThermoML archive (doi:10.1007/s10765-019-2537-x)
Several values for one entry are separate records, joined by “and”; a condition that tells them apart may be missing. Equal values may be shown once.

Conditions: Liquid, transient hot wire

CCCCCCCCCCCCCCC [pentadecane]
Conditions | thermal conductivity
436.95 K, 5250 kPa | 0.111 W/m/K
436.98 K, 10580 kPa | 0.1145 W/m/K
437.06 K, 1280 kPa | 0.1105 W/m/K
437.06 K, 15070 kPa | 0.1143 W/m/K
437.08 K, 15070 kPa | 0.1135 W/m/K
437.1 K, 5250 kPa | 0.1106 W/m/K
437.1 K, 15070 kPa | 0.1133 W/m/K
437.11 K, 1280 kPa | 0.1079 W/m/K
437.12 K, 10470 kPa | 0.1112 W/m/K
437.14 K, 5250 kPa | 0.1103 W/m/K
437.25 K, 1280 kPa | 0.1089 W/m/K
456.48 K, 20550 kPa | 0.1176 W/m/K
456.52 K, 20460 kPa | 0.1176 W/m/K
456.66 K, 20460 kPa | 0.113 W/m/K
456.86 K, 15300 kPa | 0.1132 W/m/K
456.9 K, 15300 kPa | 0.1124 W/m/K
456.94 K, 15300 kPa | 0.1116 W/m/K
457.02 K, 1540 kPa | 0.1032 W/m/K
457.03 K, 1550 kPa | 0.1063 W/m/K
457.03 K, 10370 kPa | 0.1096 W/m/K
457.04 K, 1560 kPa | 0.1059 W/m/K
457.18 K, 5400 kPa | 0.1082 W/m/K
457.32 K, 5440 kPa | 0.1063 W/m/K
457.33 K, 10250 kPa | 0.1104 W/m/K
457.37 K, 10270 kPa | 0.1084 W/m/K
457.4 K, 5440 kPa | 0.1059 W/m/K
476.68 K, 20310 kPa | 0.114 W/m/K
476.72 K, 15160 kPa | 0.1061 W/m/K
476.9 K, 20850 kPa | 0.1106 W/m/K
476.95 K, 15160 kPa | 0.1094 W/m/K
476.97 K, 10330 kPa | 0.1092 W/m/K
477 K, 15160 kPa | 0.1082 W/m/K
477.06 K, 20970 kPa | 0.1128 W/m/K
477.24 K, 5120 kPa | 0.1033 W/m/K
477.29 K, 1080 kPa | 0.0998 W/m/K
477.29 K, 10330 kPa | 0.1023 W/m/K
477.3 K, 5120 kPa | 0.1024 W/m/K
477.3 K, 10330 kPa | 0.1044 W/m/K
477.32 K, 5120 kPa | 0.1031 W/m/K
477.33 K, 1080 kPa | 0.0988 W/m/K
477.61 K, 1080 kPa | 0.1038 W/m/K
496.62 K, 20420 kPa | 0.111 W/m/K
496.9 K, 20420 kPa | 0.1069 W/m/K
496.94 K, 10500 kPa | 0.102 W/m/K
496.95 K, 5430 kPa | 0.0983 W/m/K
496.95 K, 20420 kPa | 0.1039 W/m/K
496.96 K, 15010 kPa | 0.1033 W/m/K
496.97 K, 15010 kPa | 0.1021 W/m/K and 0.105 W/m/K
497 K, 10530 kPa | 0.1008 W/m/K
497.04 K, 10470 kPa | 0.1024 W/m/K
497.1 K, 5410 kPa | 0.0981 W/m/K
497.15 K, 5430 kPa | 0.0965 W/m/K
516.81 K, 15180 kPa | 0.104 W/m/K
516.84 K, 20110 kPa | 0.0998 W/m/K
516.89 K, 20110 kPa | 0.1031 W/m/K
517 K, 15180 kPa | 0.0984 W/m/K
517 K, 20100 kPa | 0.1021 W/m/K
517.03 K, 15180 kPa | 0.099 W/m/K
517.12 K, 5490 kPa | 0.0948 W/m/K
517.19 K, 5490 kPa | 0.094 W/m/K
517.2 K, 5490 kPa | 0.0941 W/m/K
536.59 K, 20650 kPa | 0.1039 W/m/K and 0.1025 W/m/K
536.85 K, 20650 kPa | 0.0995 W/m/K
536.99 K, 15650 kPa | 0.1001 W/m/K
537.13 K, 15650 kPa | 0.0975 W/m/K
537.14 K, 10120 kPa | 0.0972 W/m/K
537.39 K, 5310 kPa | 0.0872 W/m/K
556.55 K, 5420 kPa | 0.0851 W/m/K
556.82 K, 15300 kPa | 0.1002 W/m/K
556.9 K, 20180 kPa | 0.0999 W/m/K
556.93 K, 10380 kPa | 0.0967 W/m/K
557 K, 20180 kPa | 0.0986 W/m/K
557.05 K, 10380 kPa | 0.0943 W/m/K
557.06 K, 20180 kPa | 0.098 W/m/K
557.12 K, 15300 kPa | 0.0941 W/m/K
557.14 K, 15300 kPa | 0.0924 W/m/K
576.55 K, 20450 kPa | 0.0998 W/m/K
576.95 K, 20450 kPa | 0.0961 W/m/K
577.01 K, 10240 kPa | 0.0944 W/m/K
577.06 K, 20450 kPa | 0.0928 W/m/K
577.08 K, 15190 kPa | 0.0923 W/m/K
577.1 K, 5140 kPa | 0.0897 W/m/K
577.12 K, 10300 kPa | 0.0889 W/m/K
577.12 K, 15190 kPa | 0.0924 W/m/K
577.15 K, 15190 kPa | 0.09 W/m/K
577.16 K, 10320 kPa | 0.0907 W/m/K
577.17 K, 5140 kPa | 0.0888 W/m/K
577.25 K, 5140 kPa | 0.0876 W/m/K
